Data as given in patent US9156801B2, “2-substituted oleanolic acid derivative, method preparing for same, and application thereof” (HANGZHOU BENSHENG PHARMACEUTICAL CO., LTD., priority 2011, dated 2015).
Converted amounts (≈) assume the structure as drawn.

Tests used:
[1] = test system: H9 cell line; experiment: leukemia cell growth inhibition, MTT; type: cell-based; conditions: Homo sapiens
Summary of the method: (§1)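 Leukemia cells (6000 per well) are grown in 1640 medium containing 10% fetal bovine serum, treated with several concentrations of test derivative, and incubated 72 hours at 37° C in 5% CO2. The relative viable count is then measured by MTT.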

[2] = test system: NB4 cell line; experiment: leukemia cell growth inhibition, MTT; type: cell-based; conditions: Homo sapiens, NB-4
Summary of the method: as §1

[3] = test system: Kasumi-1 cell line; experiment: leukemia cell growth inhibition, MTT; type: cell-based; conditions: Homo sapiens
Summary of the method: as §1

[4] = test system: K562/adr cell line; experiment: leukemia cell growth inhibition, MTT; type: cell-based; conditions: Homo sapiens, 72 h
Summary of the method: as §1

[5] = test system: Jurkat cell line; experiment: leukemia cell growth inhibition, MTT; type: cell-based; conditions: Homo sapiens, 72 h
Summary of the method: as §1

[6] = test system: Hep G2 cell line; experiment: solid tumor cell growth inhibition, MTT; type: cell-based, human; conditions: Homo sapiens
Summary of the method: (§2)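 Cells grown in DMEM high glucose supplemented with 10% fetal bovine serum were plated at 4000 per well. After 24 h at 37° C in 5% CO2, varying compound concentrations were added for a further 72 h before MTT determination of viable cells.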

[7] = test system: U87 MG cell line; experiment: solid tumor cell growth inhibition, MTT; type: cell-based; conditions: Homo sapiens, U-87 MG, 72 h
Summary of the method: as §2

[8] = test system: Hep-2 cell line; experiment: solid tumor cell growth inhibition, MTT; type: cell-based; conditions: Homo sapiens
Summary of the method: as §2

[9] = test system: RKO cell line; experiment: solid tumor cell growth inhibition, MTT; type: cell-based; conditions: Homo sapiens, 72 h
Summary of the method: as §2

[10] = test system: SK-OV-3 cell line; experiment: solid tumor cell growth inhibition, MTT; type: cell-based; conditions: Homo sapiens
Summary of the method: as §2

[11] = test system: MG-63 cell line; experiment: solid tumor cell growth inhibition, MTT; type: cell-based; conditions: Homo sapiens
Summary of the method: as §2

[12] = test system: PC-3 cell line; experiment: solid tumor cell growth inhibition, MTT; type: cell-based; conditions: Homo sapiens
Summary of the method: as §2

[13] = test system: PANC-1 cell line; experiment: solid tumor cell growth inhibition, MTT; type: cell-based; conditions: Homo sapiens
Summary of the method: as §2

[14] = test system: A549 cell line; experiment: solid tumor cell growth inhibition, MTT; type: cell-based; conditions: Homo sapiens
Summary of the method: as §2

[15] = test system: Hela cell line; experiment: solid tumor cell growth inhibition, MTT; type: cell-based; conditions: Homo sapiens, 72 h
Summary of the method: as §2

[16] = test system: CNE cell line; experiment: solid tumor cell growth inhibition, MTT; type: cell-based; conditions: Homo sapiens, 72 h
Summary of the method: as §2

[17] = test system: MGC 803 cell line; experiment: solid tumor cell growth inhibition, MTT; type: cell-based; conditions: Homo sapiens
Summary of the method: as §2

[18] = test system: Becap37 cell line; experiment: solid tumor cell growth inhibition, MTT; type: cell-based; conditions: Homo sapiens
Summary of the method: as §2

[19] = test system: CaES-17 cell line; experiment: solid tumor cell growth inhibition, MTT; type: cell-based; conditions: Homo sapiens, CaEs17
Summary of the method: as §2

[20] = test system: RPMI8226 cell line; experiment: multiple myeloma cell growth inhibition, MTT; type: cell-based; conditions: Homo sapiens, RPMI-8226
Summary of the method: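 RPMI8226 cells (6000 per well) in RPMI 1640 with 10% FBS were exposed to several concentrations of compound for 72 h at 37° C and 5% CO2. Viable cells were quantified by MTT, with inhibition set to 0% in untreated controls.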

[21] = 16 μg/mL compound, read-out: IR (cell proliferation inhibition rate)

CCN(CC)CCNC(=O)C1C[C@@]2(C)C(CC[C@]3(C)C2CC=C2C4CC(C)(C)CC[C@]4(C(=O)O)CC[C@]23C)C(C)(C)C1=O (stereo partly shown) [BS-OA-106]
IC50 ([1]; H9, 72 h): > 16 µg/mL
inhibition at 16 µg/mL ([1]; H9, 16 μg/mL compound, 72 h, read-out: IR (cell proliferation inhibition rate)): 44.6%
inhibition at 16 µg/mL ([2]; NB4, 16 μg/mL compound, 72 h, read-out: IR (cell proliferation inhibition rate)): 86.6%
IC50 ([2]; NB4, 72 h): 7.32 µg/mL (≈ 12.3 µM)
inhibition at 16 µg/mL ([3]; Kasumi-1, 16 μg/mL compound, 72 h, read-out: IR (cell proliferation inhibition rate)): 43%
IC50 ([3]; Kasumi-1, 72 h): > 16 µg/mL
IC50 ([4]; K562/Adr): 4.12 µg/mL (≈ 6.9 µM)
inhibition at 16 µg/mL ([4]; K562/adr, 16 μg/mL compound, read-out: IR (cell proliferation inhibition rate)): 98.2%
inhibition at 16 µg/mL [5, 21]: 43.2%
IC50 [5]: > 16 µg/mL
inhibition at 16 µg/mL ([6]; HepG2, 72 h, Hep G2, 16 μg/mL compound, 72 h, read-out: IR (cell proliferation inhibition rate)): 33.6%
IC50 ([6]; HepG2, Hep G2, 72 h): > 16 µg/mL
inhibition at 16 µg/mL [7, 21]: 7.2%
IC50 [7]: > 16 µg/mL
IC50 ([8]; HEp-2, 72 h): > 16 µg/mL
inhibition at 16 µg/mL ([8]; Hep-2, 16 μg/mL compound, 72 h, read-out: IR (cell proliferation inhibition rate)): 3.8%
inhibition at 16 µg/mL [9, 21]: 5.3%
IC50 [9]: > 16 µg/mL
IC50 ([10]; SK-OV-3, 72 h): > 16 µg/mL
inhibition at 16 µg/mL ([10]; SK-OV-3, 16 μg/mL compound, 72 h, read-out: IR (cell proliferation inhibition rate)): -17%
IC50 ([11]; MG-63, 72 h): > 16 µg/mL
inhibition at 16 µg/mL ([11]; MG-63, 16 μg/mL compound, 72 h, read-out: IR (cell proliferation inhibition rate)): 4.9%
IC50 ([12]; PC-3, 72 h): > 16 µg/mL
inhibition at 16 µg/mL ([12]; PC-3, 16 μg/mL compound, 72 h, read-out: IR (cell proliferation inhibition rate)): -6.4%
IC50 ([13]; PANC-1, 72 h): > 16 µg/mL
inhibition at 16 µg/mL ([13]; PANC-1, 16 μg/mL compound, 72 h, read-out: IR (cell proliferation inhibition rate)): 16.9%
IC50 ([14]; A549, 72 h): > 16 µg/mL
inhibition at 16 µg/mL ([14]; A549, 16 μg/mL compound, 72 h, read-out: IR (cell proliferation inhibition rate)): 31.5%
IC50 ([15]; HeLa): > 16 µg/mL
inhibition at 16 µg/mL ([15]; Hela, 16 μg/mL compound, read-out: IR (cell proliferation inhibition rate)): 34.6%
inhibition at 16 µg/mL [16, 21]: 44.3%
IC50 [16]: > 16 µg/mL
inhibition at 16 µg/mL ([17]; MGC 803, 16 μg/mL compound, 72 h, read-out: IR (cell proliferation inhibition rate)): 13.4%
IC50 ([17]; MGC 803, 72 h): > 16 µg/mL
inhibition at 16 µg/mL ([18]; Becap37, 16 μg/mL compound, 72 h, read-out: IR (cell proliferation inhibition rate)): 27.5%
IC50 ([18]; Becap37, 72 h): > 16 µg/mL
inhibition at 16 µg/mL ([19]; CaES-17, 16 μg/mL compound, 72 h, read-out: IR (cell proliferation inhibition rate)): 10%
IC50 ([19]; CaES-17, 72 h): > 16 µg/mL
inhibition at 16 µg/mL ([20]; RPMI8226, 16 μg/mL compound, 72 h, read-out: IR (cell proliferation inhibition rate)): 68.3%
IC50 ([20]; RPMI8226, 72 h): 12.2 µg/mL (≈ 20.5 µM)
